{"source": "patent US11213522B2", "about": "“Autoimmune-induced glutamatergic receptor dysfunction methods and treatments” (SARAH HERZOG MEMORIAL HOSPITAL EZRAT NASHIM ASSOCIATION, priority 2013, dated 2022)", "key": {"[1]": {"system": "patient positive for anti-NR1 NMDAR antibodies", "assay": "Digit Span Test (DST), forward and backward", "format": "in vivo, human", "conditions": "post-6 weeks D-serine", "experimental": "(§1) The trial consisted of two periods, starting with a 2 week lead-in/stabilization period (−2-0) following which the patient was entered in the second period of the study which consisted of a 6 week (0-6), open-label, fixed dose therapy phase. During this phase, the patient received adjuvant treatment with DSR, whose dose was increased from 1500 mg/day (week 1) to 2000 mg/day (weeks 2 and 3) to 3000 mg/day (weeks 4 and 5) and to 4000 mg/day (week 6). The doses of the ongoing medication received by the patient remained fixed throughout the study and no changes in medication were performed.\n(§2) In addition, cognitive performance was assessed pre- and post DSR treatment. For this purpose, a 1.5-hour neurocognitive assessment battery (nine computerized and two paper/pencil tests) was employed that measures accuracy and speed of performance in major cognition domains, including attention/vigilance, planning, short-term and working memory, decision making, abstraction and mental flexibility. All the tests were formatted like games and puzzles, and were administered to the patient as part of the comprehensive neuropsychiatric assessment at baseline and the end of study. The neurocognitive battery included the 1) Test of Attentional Vigilance (TOAV, (Forbes, 1998, Journal of Clinical Psychology 54:461-476; Greenberg, 1993, Journal of Child Psychology and Psychiatry 34: 1019-30)); 2) Tower of London (TOL, (Shailice, 1982, Specific impairments of planning Philosophical Transactions of the Royal Society of London. Series B, Biological Sciences 298:199-209); 3-4) Digit Span Test (DST, forward and backward (Wechsler 1997, The Wechsler adult intelligence scale-III. San Antonio, Tex.: Psychological Corporation; Kaplan 1991, The WAIS-R as a neuropsychological instrument. San Antonio, Tex.: The Psychological Corporation; Lamar et al., 2007, Neuropsychologia 45:245-54; Lamar et al., 2008, Neuropsychologia 46:2597-601)); 5-6) Corsi Block Tapping Test (CBTT, forward and backward, (Corsi, 1972, Dissertation Abstracts International. 34:819B; Kessels et al., 2000, Applied Neuropsychology 7:252-58, Kessels et al., 2008, Assessment 15:426-34)); 7) Flanker Task (Erikson and Eriksen, 1974; Perception & Psychophysics 25: 249-63, Stins et. al., 2007, Advances in Cognitive Psychology 3:389-96); 8) Time Wall (Perez et al., 1987, Unified Tri-services cognitive performance assessment battery: review and methodology; DTIC Document ADA181697, http://www.dtic.mil/dtic/tr/fulltext/u2/a81697.pdf); and Wisconsin Card Sort Test (WCST, (Berg, 1948, J Gen Psychol39:15-22; Nelson, 1976, Cortex 12:313-24)). […]"}, "[2]": {"system": "patient positive for anti-NR1 NMDAR antibodies", "assay": "Corsi Block Tapping Test (CBTT), forward and backward", "format": "in vivo, human", "conditions": "post-6 weeks D-serine", "experimental": "as §1, §2"}, "[3]": {"conditions": "pre-treatment subject unable to complete task"}}, "data": [{"compound": "N[C@H](CO)C(=O)O", "note": "[D-serine]", "values": [{"measurement": "DST Forward Span Length (3-9)", "setting": "[1]; pre-treatment 6", "result": 7}, {"measurement": "DST Forward Number Correct (0-14)", "setting": "[1]; pre-treatment 8", "result": 9}, {"measurement": "DST Backward Number Correct (0-14)", "setting": "[1]; [3]", "result": 3}, {"measurement": "DST Backward Span Length (3-9)", "setting": "[1]; [3]", "result": 4}, {"measurement": "CBTT Backward Span Length (2-9)", "setting": "[2]; pre-treatment 4", "result": 3.5}, {"measurement": "CBTT Forward Span Length (2-9)", "setting": "[2]; pre-treatment 5", "result": 4}, {"measurement": "CBTT Backward Number Correct (0-16)", "setting": "[2]; pre-treatment 6", "result": 5}, {"measurement": "CBTT Forward Number Correct (0-16)", "setting": "[2]; pre-treatment 8", "result": 6}]}]}
